Measured values as given in US10821115B2, “Compounds that inhibit Mcl-1 protein” (priority 2017, dated 2020).

Columns and labels:
[1] = biological target: recombinant human Mcl-1 (residues 171-327) / Bim interaction (Homo sapiens (Human), UniProt Q07820); test: biochemical; type: binding; conditions: 0.1 nM Mcl-1(171-327), 0.05 nM biotin-Bim (51-76); read-out: Mcl-1 HTRF IC50
[2] = test system: human multiple myeloma cell line, OPM-2; test: Cell viability assay (OPM-2 10 FBS), CellTiter-Glo; type: cell-based; conditions: Homo sapiens, OPM-2, 16 h, read-out: OPM-2 10% FBS IC50 IP, OPM-2 cells, 10% FBS, 16 h incubation
Procedure, shortened: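 Cells were seeded at 3000 cells/well in RPMI 1640 with 10% FBS and exposed to serially diluted compounds for 16 h at 37 °C, 5% CO2.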

Sequence of recombinant human Mcl-1 (residues 171-327) / Bim interaction (Q07820 171-327): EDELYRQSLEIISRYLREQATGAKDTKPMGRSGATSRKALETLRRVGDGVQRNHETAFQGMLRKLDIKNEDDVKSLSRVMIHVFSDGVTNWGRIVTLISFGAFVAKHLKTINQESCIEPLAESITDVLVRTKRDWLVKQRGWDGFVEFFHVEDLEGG

Row | SMILES | IC50 [1] [nM] | IC50 [2] [nM]
1 | COCC[C@@H]1[C@@H](C)C/C=C/[C@](CN2CCN(C(C)(C)COC)CC2)(OC)[C@@H]2CC[C@H]2CN2C[C@@]3(CCCc4cc(Cl)ccc43)COc3ccc(nc32)C(=O)NS1(=O)=O [Example 27, (1S,3′R,6′R,7′S,8′E,11′S,12′R)-6-chloro-7′-methoxy-7′-((4-(2-methoxy-1,1-dimethylethyl)-1-piperazinyl)methyl)-12′-(2-methoxyethyl)-11′-methyl-3,4-dihydro-2H,15′H-spiro[naphthalene-1,22′-[20]oxa[13]thia[1,14,25]triazatetracyclo [14.7.2.0~3,6~.0~19,24~]pentacosa[8,16,18,24]tetraen]-15′-one 13′,13′-dioxide] | 0.095 | 29
2 | CC[C@@H]1CC/C=C/[C@](CN2CCN3CCOC[C@@H]3C2)(OC)[C@@H]2CC[C@H]2CN2C[C@@]3(CCCc4cc(Cl)ccc43)COc3ccc(cc32)C(=O)NS1(=O)=O [Example 28, (1S,3′R,6′R,7′S,8′E,12′R)-6-chloro-12′-ethyl-7′-((9aS)-hexahydropyrazino[2,1-c][1,4]oxazin-8(1H)-ylmethyl)-7′-methoxy-3,4-dihydro-2H,15′H-spiro[naphthalene-1,22′-[20]oxa[13]thia[1,14]diazatetracyclo [14.7.2.0~3,6~.0~19,24~]pentacosa[8,16,18,24]tetraen]-15′-one 13′,13′-dioxide] | 0.082 | 111
3 | CC[C@@H]1CC/C=C/[C@](CN2CCN3CCCC[C@@H]3C2)(OC)[C@@H]2CC[C@H]2CN2C[C@@]3(CCCc4cc(Cl)ccc43)COc3ccc(cc32)C(=O)NS1(=O)=O [Example 29, (1S,3′R,6′R,7′S,8′E,12′R)-6-chloro-12′-ethyl-7′-methoxy-7′-((9aR)-octahydro-2H-pyrido[1,2-a]pyrazin-2-ylmethyl)-3,4-dihydro-2H,15′H-spiro[naphthalene-1,22′-[20]oxa[13]thia[1,14]diazatetracyclo [14.7.2.0~3,6~.0~19,24~]pentacosa[8,16,18,24]tetraen]-15′-one 13′,13′-dioxide] | 0.249 | 186
4 | CC[C@@H]1CC/C=C/[C@@](CN2CCN3CCOC[C@@H]3C2)(OC)[C@@H]2CC[C@H]2CN2C[C@@]3(CCCc4cc(Cl)ccc43)COc3ccc(cc32)C(=O)NS1(=O)=O [Example 30, (1S,3′R,6′R,7′R,8′E,12′R)-6-chloro-12′-ethyl-7′-((9aS)-hexahydropyrazino[2,1-c][1,4]oxazin-8(1H)-ylmethyl)-7′-methoxy-3,4-dihydro-2H,15′H-spiro[naphthalene-1,22′-[20]oxa[13]thia[1,14]diazatetracyclo [14.7.2.0~3,6~.0~19,24~]pentacosa[8,16,18,24]tetraen]-15′-one 13′,13′-dioxide] | 0.11 | 166
5 | CC[C@@H]1CC/C=C/[C@](CN2CCN(C)CC2)(OC)[C@@H]2CC[C@H]2CN2C[C@@]3(CCCc4cc(Cl)ccc43)COc3ccc(cc32)C(=O)NS1(=O)=O [Example 31, (1S,3′R,6′R,7′S,8′E,12′R)-6-chloro-12′-ethyl-7′-methoxy-7′-((4-methyl-1-piperazinyl)methyl)-3,4-dihydro-2H,15′H-spiro[naphthalene-1,22′-[20]oxa[13]thia[1,14]diazatetracyclo [14.7.2.0~3,6~.0~19,24~]pentacosa[8,16,18,24]tetraen]-15′-one 13′,13′-dioxide] | 0.184 | 216
6 | CC[C@@H]1CC/C=C/[C@@](CN2CCN3CCCC[C@@H]3C2)(OC)[C@@H]2CC[C@H]2CN2C[C@@]3(CCCc4cc(Cl)ccc43)COc3ccc(cc32)C(=O)NS1(=O)=O [Example 32, (1S,3′R,6′R,7′R,8′E,12′R)-6-chloro-12′-ethyl-7′-methoxy-7′-((9aR)-octahydro-2H-pyrido[1,2-a]pyrazin-2-ylmethyl)-3,4-dihydro-2H,15′H-spiro[naphthalene-1,22′-[20]oxa[13]thia[1,14]diazatetracyclo [14.7.2.0~3,6~.0~19,24~]pentacosa[8,16,18,24]tetraen]-15′-one 13′,13′-dioxide] | 0.128 | 147
7 | CO[C@@]1(CN(C)CCN2CCOCC2)/C=C/C[C@H](C)[C@@H](C)S(=O)(=O)NC(=O)c2ccc3c(c2)N(C[C@@H]2CC[C@H]21)C[C@@]1(CCCc2cc(Cl)ccc21)CO3 [Example 35, (1S,3′R,6′R,7′S,8′E,11′S,12′R)-6-chloro-7′-methoxy-11′,12′-dimethyl-7′-((methyl(2-(4-morpholinyl)ethyl)amino)methyl)-3,4-dihydro-2H,15′H-spiro[naphthalene-1,22′-[20]oxa[13]thia[1,14]diazatetracyclo [14.7.2.0~3,6~.0~19,24~]pentacosa[8,16,18,24]tetraen]-15′-one 13′,13′-dioxide] | 0.218 | 235
8 | CO[C@]1(CN(C)CCN2CCOCC2)/C=C/C[C@H](C)[C@@H](C)S(=O)(=O)NC(=O)c2ccc3c(c2)N(C[C@@H]2CC[C@H]21)C[C@@]1(CCCc2cc(Cl)ccc21)CO3 [Example 37, (1S,3′R,6′R,7′R,8′E,11′S,12′R)-6-chloro-7′-methoxy-11′,12′-dimethyl-7′-((methyl(2-(4-morpholinyl)ethyl)amino)methyl)-3,4-dihydro-2H,15′H-spiro[naphthalene-1,22′-[20]oxa[13]thia[1,14]diazatetracyclo [14.7.2.0~3,6~.0~19,24~]pentacosa[8,16,18,24]tetraen]-15′-one 13′,13′-dioxide] | 0.615 | 643
9 | CO[C@]1(CN2CCN3CCOC[C@@H]3C2)/C=C/C[C@H](C)[C@@H](CC2CCC2)S(=O)(=O)NC(=O)c2ccc3c(c2)N(C[C@@H]2CC[C@H]21)C[C@@]1(CCCc2cc(Cl)ccc21)CO3 [Example 38] | 0.342 | 489
10 | CO[C@@]1(CN2CCN3CCOC[C@@H]3C2)/C=C/C[C@H](C)[C@@H](CC2CCC2)S(=O)(=O)NC(=O)c2ccc3c(c2)N(C[C@@H]2CC[C@H]21)C[C@@]1(CCCc2cc(Cl)ccc21)CO3 [Example 39, (1S,3′R,6′R,7′S,8′E,11′S,12′R)-6-chloro-12′-(cyclobutylmethyl)-7′-((9aS)-hexahydropyrazino[2,1-c][1,4]oxazin-8(1H)-ylmethyl)-7′-methoxy-11′-methyl-3,4-dihydro-2H,15′H-spiro[naphthalene-1,22′-[20]oxa[13]thia[1,14]diazatetracyclo [14.7.2.0~3,6~.0~19,24~]pentacosa[8,16,18,24]tetraen]-15′-one 13′,13′-dioxide] | 0.377 | 389
11 | CO[C@]1(CN2CCN3CCCC[C@@H]3C2)/C=C/C[C@H](C)[C@@H](CC2CCC2)S(=O)(=O)NC(=O)c2ccc3c(c2)N(C[C@@H]2CC[C@H]21)C[C@@]1(CCCc2cc(Cl)ccc21)CO3 [Example 40, (1S,3′R,6′R,7′R,8′E,11′S,12′R)-6-chloro-12′-(cyclobutylmethyl)-7′-methoxy-11′-methyl-7′-((9aR)-octahydro-2H-pyrido[1,2-a]pyrazin-2-ylmethyl)-3,4-dihydro-2H,15′H-spiro[naphthalene-1,22′-[20]oxa[13]thia[1,14]diazatetracyclo [14.7.2.0~3,6~.0~19,24~]pentacosa[8,16,18,24]tetraen]-15′-one 13′,13′-dioxide] | 0.444 | 571
12 | CO[C@@]1(CN2CCN3CCCC[C@@H]3C2)/C=C/C[C@H](C)[C@@H](CC2CCC2)S(=O)(=O)NC(=O)c2ccc3c(c2)N(C[C@@H]2CC[C@H]21)C[C@@]1(CCCc2cc(Cl)ccc21)CO3 [Example 41, (1S,3′R,6′R,7′S,8′E,11′S,12′R)-6-chloro-12′-(cyclobutylmethyl)-7′-methoxy-11′-methyl-7′-((9aR)-octahydro-2H-pyrido[1,2-a]pyrazin-2-ylmethyl)-3,4-dihydro-2H,15′H-spiro[naphthalene-1,22′-[20]oxa[13]thia[1,14]diazatetracyclo [14.7.2.0~3,6~.0~19,24~]pentacosa[8,16,18,24]tetraen]-15′-one 13′,13′-dioxide] | 0.642 | 810
13 | CCO[C@]1(CN2CCN3CCCC[C@@H]3C2)/C=C/CC[C@@H](CC)S(=O)(=O)NC(=O)c2ccc3c(c2)N(C[C@@H]2CC[C@H]21)C[C@@]1(CCCc2cc(Cl)ccc21)CO3 [Example 42, (1S,3′R,6′R,7′R,8′E,12′R)-6-chloro-7′-ethoxy-12′-ethyl-7′-((9aR)-octahydro-2H-pyrido[1,2-a]pyrazin-2-ylmethyl)-3,4-dihydro-2H,15′H-spiro[naphthalene-1,22′-[20]oxa[13]thia[1,14]diazatetracyclo [14.7.2.0~3,6~.0~19,24~]pentacosa[8,16,18,24]tetraen]-15′-one 13′,13′-dioxide] | 0.17 | 149
14 | CCO[C@@]1(CN2CCN3CCCC[C@@H]3C2)/C=C/CC[C@@H](CC)S(=O)(=O)NC(=O)c2ccc3c(c2)N(C[C@@H]2CC[C@H]21)C[C@@]1(CCCc2cc(Cl)ccc21)CO3 [Example 43, (1S,3′R,6′R,7′S,8′E,12′R)-6-chloro-7′-ethoxy-12′-ethyl-7′-((9aR)-octahydro-2H-pyrido[1,2-a]pyrazin-2-ylmethyl)-3,4-dihydro-2H,15′H-spiro[naphthalene-1,22′-[20]oxa[13]thia[1,14]diazatetracyclo [14.7.2.0~3,6~.0~19,24~]pentacosa[8,16,18,24]tetraen]-15′-one 13′,13′-dioxide] | 1.64 | 888
15 | CCO[C@@]1(CN2CCN3CCOC[C@@H]3C2)/C=C/C[C@H](C)[C@@H](CC2CCC2)S(=O)(=O)NC(=O)c2ccc3c(c2)N(C[C@@H]2CC[C@H]21)C[C@@]1(CCCc2cc(Cl)ccc21)CO3 [Example 44, (1S,3′R,6′R,7′S,8′E,11′S,12′R)-6-chloro-12′-(cyclobutylmethyl)-7′-ethoxy-7′-((9aS)-hexahydropyrazino[2,1-c][1,4]oxazin-8(1H)-ylmethyl)-11′-methyl-3,4-dihydro-2H,15′H-spiro[naphthalene-1,22′-[20]oxa[13]thia[1,14]diazatetracyclo [14.7.2.0~3,6~.0~19,24~]pentacosa[8,16,18,24]tetraen]-15′-one 13′,13′-dioxide] | 0.288 | 1360
